These results are taken from publication PMC8226722, “Comparison of Solution Chemical Properties and Biological Activity of Ruthenium Complexes of Selected β-Diketone, 8-Hydroxyquinoline and Pyrithione Ligands” (Pharmaceuticals, 2021).

Series [1] has as its system Colo 205 chemo-sensitive human colonic adenocarcinoma cell line. The experiment in a line: MTT cytotoxicity assay, Colo 205. Type of series: cell-based. As to conditions: for IC50: 72 h, MTT; for S.I. MRC-5/Colo 205: ratio of the indicated IC50 values. The protocol: (§1) Human colonic adenocarcinoma cell lines Colo 205 doxorubicin-sensitive (ATCC-CCL-222) and Colo 320/MDR-LRP multidrug resistant expressing ABCB1 (MDR1)-LRP (ATCC-CCL-220.1) were purchased from LGC Promochem (Teddington, UK). […] Cell lines were incubated at 37 °C, in a 5% CO2, 95% air atmosphere. The semi-adherent human colon cancer cells were detached with Trypsin-Versene (EDTA, Sigma, Steinheim, Germany) solution for 5 min at 37 °C. MRC-5 human embryonal lung fibroblast cell lines (ATCC CCL-171) were purchased from LGC Promochem. […] The cell lines were incubated at 37 °C, in a 5% CO2, 95% air atmosphere.
(§2) In the study MRC-5 non-cancerous human embryonic lung fibroblast and human colonic adenocarcinoma cell lines (doxorubicin-sensitive Colo 205 and multidrug resistant Colo 320 colonic adenocarcinoma cells) were used to determine the effect of compounds on cell growth. The effects of increasing concentrations of compounds on cell growth were tested in 96-well flat-bottomed microtiter plates. The stock solutions of the compounds were prepared in DMSO, and in the final samples the DMSO content was always lower than 1%. The compounds were diluted in a volume of 100 μL of medium.
(§3) In case of the colonic adenocarcinoma cells, the two-fold serial dilutions of compounds were prepared in 100 μL of RPMI 1640, horizontally. The semi-adherent colonic adenocarcinoma cells were treated with Trypsin-Versene (EDTA) solution. They were adjusted to a density of 1 × 10^4 cells in 100 μL of RPMI 1640 medium, and were added to each well, with the exception of the medium control wells. The final volume of the wells containing compounds and cells was 200 μL.
(§4) The culture plates were incubated at 37 °C for 72 h; at the end of the incubation period, 20 μL of MTT (Sigma) solution (from a stock solution of 5 mg/mL) were added to each well. After incubation at 37 °C for 4 h, 100 μL of sodium dodecyl sulfate (SDS) (Sigma) solution (10% in 0.01 M HCl) were added to each well and the plates were further incubated at 37 °C overnight. Cell growth was determined by measuring the optical density (OD) at 540/630 nm with Multiscan EX ELISA reader (Thermo Labsystems, Cheshire, WA, USA). […] Curves were fitted by Prism software (GraphPad Software Inc., San Diego, CA, USA) using the sigmoidal dose-response model (comparing variable and fixed slopes). The IC50 values were obtained from at least 3 independent experiments.

The test system of series [2] is Colo 320 multidrug resistant human colonic adenocarcinoma cell line. The series is described as follows: MTT cytotoxicity assay, Colo 320. Format: cell-based. As to conditions: for IC50: 72 h, MTT; for S.I. MRC-5/Colo 320: ratio of the indicated IC50 values. Here is the method:
as §1, §2, §3, §4

Series [3] deals with MRC-5 normal human embryonal lung fibroblast cells. The experiment in a line: MTT cytotoxicity assay, MRC-5. Format: cell-based. As to conditions: 72 h. Here is the method:
as §1, §2, §3, §4

Series [4] deals with Enterococcus faecalis ATCC 29212. The experiment in a line: MIC determination (CLSI broth microdilution). Type of series: cell-based. The note with it: Gram-positive, ATCC 29212, 18 h. Here is the method: (§5) Wild-type Escherichia coli K-12 AG100 strain [argE3 thi-1 rpsL xyl mtl Δ(gal-uvrB) supE44] expressing the AcrAB TolC EP at its basal level and Klebsiella pneumoniae ATCC 49,619 Gram-negative strains were studied in the experiments. Staphylococcus aureus ATCC 43,300 methicillin-resistant (MRSA) strain and Enterococcus faecalis ATCC 29,212 strain were used as Gram-positive strains in the assays. MIC values of the complexes were determined in 96-well plates based on the Clinical and Laboratory Standard Institute guidelines (CLSI guidelines). The stock solutions of the compounds (dissolved in DMSO using 10 mM concentration) were diluted in 100 μL of Mueller Hinton Broth. Then 10^−4 dilution of an overnight bacterial culture in 100 μL of medium was added to each well, with the exception of the medium control wells.

The subject of series [5] is Escherichia coli K-12 AG100. The experiment in a line: MIC determination (CLSI broth microdilution). Type of series: cell-based. As to conditions: Gram-negative, AG100, 18 h. The protocol:
as §5

In series [6] the test system is Klebsiella pneumoniae ATCC 49619. The series is described as follows: MIC determination (CLSI broth microdilution). Type of series: cell-based. As to conditions: Gram-negative, ATCC 49619, 18 h. The protocol: as §5
For series [7], the system named is Staphylococcus aureus ATCC 43300 methicillin-resistant (MRSA). The series is described as follows: MIC determination (CLSI broth microdilution). Type of series: cell-based. The note with it: Gram-positive, MRSA ATCC 43300, 18 h. The protocol: as §5
Series [8] deals with ABCB1 (P-glycoprotein) efflux pump (Homo sapiens, UniProt P08183). The experiment in a line: Rhodamine 123 uptake/retention fluorescence assay (flow cytometry) in Colo 320 cells. The protocol: It is important to note, that the resistance of this cell line is primarily mediated by the overexpression of the ABC-transporter P-glycoprotein, which pumps out xenobiotics from the cytosol. […] This dye is membrane-permeable and is rapidly taken up by the cells; therefore, it can be effectively used for the screening of efflux pump inhibiting compounds. […] Then the fluorescence accumulation ratios (FAR) were calculated (Figure 1) according to the equation given in the Materials and Methods section. Verapamil was used as a reference inhibitor compound.
This fluorescence-based detection system uses verapamil (a first-generation, competitive EPI) as reference inhibitor. […] The tested compounds were added at different concentrations (2 and 20 µM; from 1 and 10 mM stock solutions, respectively) and the samples were incubated for 10 min at room temperature.
The parameters evaluated from flow cytometric experiments are forward scatter count (FSC, provides information about cell size); side scatter count (SSC, proportional to cell granularity or internal complexity); mean fluorescence of the cells (FL-1) and the computed FAR and FAR quotients (Table S1).

Series [9] is described as follows: Solution stability and speciation (UV-vis, 1H-NMR, pH-potentiometry). The note with it: PBS’, pH 7.4, 2% DMSO, up to 24 h. The protocol: In order to confirm our prediction, time-dependent UV-visible (UV-vis) spectra were recorded for complexes 5–8 at pH 7.4 in aqueous solution (in modified phosphate buffered saline (PBS) buffer—PBS’) and in Eagle’s minimum essential medium (EMEM) used for the cytotoxicity studies in the presence of 2% (v/v) dimethyl sulfoxide (DMSO). […] Additionally, ^1H-NMR spectra were recorded for more water-soluble complexes 6–8.
In order to compare the stability of 1 and 3 at physiological pH, a serial dilution was made and UV-vis spectra were recorded in a wide concentration range (10 μM–3 mM) (Figure S10).
(§6) Titrations were performed in a carbonate-free KOH solution (0.20 M). The exact concentration of HCl and KOH solutions was determined by pH-potentiometric titrations.
(§7) The path length (l) was usually 1 cm, and 2, 5, 20 or 50 mm cells were used occasionally. Equilibrium constants (proton dissociation, stability constants, conditional stability constants (K’7.4) for the formation of mim adducts) and the individual spectra of the species were calculated with the computer program PSEQUAD [55]. The spectrophotometric titrations were performed in aqueous solution of the complexes at 25.0 ± 0.1 °C at an ionic strength of 0.20 M (KCl). Spectrum of the solution of 200 μM complex upon addition of one or two equivalents of its own ligand or phen was also measured at pH 7.4. UV-vis spectra recorded for the complexes as a function of chloride concentrations or PTA (in case of the chlorido complexes) were used to investigate the co-ligand exchange processes at pH 7.4. […] In some cases, the measurements were performed in the presence of 1–2% (Cl^−/PTA exchange reactions) or 6–8% (v/v) (interaction of mim with complexes 2, 4) DMSO.
^1H-NMR stability studies were carried out on a Bruker Avance III HD 500 MHz instrument. All ^1H-NMR spectra were recorded on samples containing 10% (v/v) D2O with the WATERGATE water suppression pulse scheme using DSS internal standard. Stability of complexes 6–8 was checked over time by ^1H-NMR spectroscopy at 500 μM in PBS’ or in EMEM (with 10% (v/v) DMSO-d6).

Another series relates to Vero cells. The experiment in a line: MTT cytotoxicity in Vero cells (maximum non-toxic concentration). As to conditions: 24 h.
Series [10] deals with HeLa 229 human cervix carcinoma cells. The experiment in a line: MTT cytotoxicity in HeLa 229 cells (maximum non-toxic concentration). As to conditions: 48 h.
Procedure: (§8) HeLa 229 cells (ATCC) and Vero cells (ATCC) were cultured in minimal essential medium (MEM) (Sigma, Steinheim, Germany) with Earle salts supplemented with 10% heat-inactivated fetal bovine serum (FBS) (Gibco; ThermoFisher Scientific, Inc., Waltham, MA, USA), 2 mM L-glutamine, 1× non-essential amino acids, 8 mM HEPES, 25 μg/mL gentamycin and 1 µg/mL fungisone. The cells were incubated for 1 h at room temperature to reduce the edge effect and then overnight at 37 °C, 5% CO2 to obtain a 90% confluent cell layer.
(§9) The density of cells was 4 × 10^4 cells/well in 100 µL of MEM with Earle salts supplemented with 10% heat-inactivated FBS, 2 mM L-glutamine, 1× MEM vitamins, 1× non-essential amino acids, 0.005% Na-pyruvate, 25 µg/mL gentamycin, 1 µg/mL fungisone). The plates were incubated for 1 h room temperature and then overnight at 37 °C, 5% CO2. Next day, when the cells reached a ~90% confluency, the medium was supplemented with the serial 2-fold dilutions of the complexes in three parallel wells for each concentration. […] After 24 h incubation for Vero cells and 48 h incubation for HeLa cells, 10 µL of the MTT (Sigma, Steinheim, Germany) labelling reagent (final concentration 0.5 mg/mL) was added to each well and the plate was incubated for 4 h at 37 °C, 5% CO2. After the incubation, 100 µL of the solubilisation solution (10% SDS in 1 M HCl) was added into each well, and the plate was allowed to stand overnight in the incubator at 37 °C, 5% CO2.
Another series in a line: physchem. Here is the method:
The solution speciation studies of complexes 1–4 were performed using UV-vis spectrophotometry and pH-potentiometry in the presence of 200 mM chloride ions.
as §6, §7

Molecules are shown by their SMILES. Where only a bound is given, the exact number is not on record here.

Sequence of ABCB1 (P-glycoprotein) efflux pump (P08183 whole entry): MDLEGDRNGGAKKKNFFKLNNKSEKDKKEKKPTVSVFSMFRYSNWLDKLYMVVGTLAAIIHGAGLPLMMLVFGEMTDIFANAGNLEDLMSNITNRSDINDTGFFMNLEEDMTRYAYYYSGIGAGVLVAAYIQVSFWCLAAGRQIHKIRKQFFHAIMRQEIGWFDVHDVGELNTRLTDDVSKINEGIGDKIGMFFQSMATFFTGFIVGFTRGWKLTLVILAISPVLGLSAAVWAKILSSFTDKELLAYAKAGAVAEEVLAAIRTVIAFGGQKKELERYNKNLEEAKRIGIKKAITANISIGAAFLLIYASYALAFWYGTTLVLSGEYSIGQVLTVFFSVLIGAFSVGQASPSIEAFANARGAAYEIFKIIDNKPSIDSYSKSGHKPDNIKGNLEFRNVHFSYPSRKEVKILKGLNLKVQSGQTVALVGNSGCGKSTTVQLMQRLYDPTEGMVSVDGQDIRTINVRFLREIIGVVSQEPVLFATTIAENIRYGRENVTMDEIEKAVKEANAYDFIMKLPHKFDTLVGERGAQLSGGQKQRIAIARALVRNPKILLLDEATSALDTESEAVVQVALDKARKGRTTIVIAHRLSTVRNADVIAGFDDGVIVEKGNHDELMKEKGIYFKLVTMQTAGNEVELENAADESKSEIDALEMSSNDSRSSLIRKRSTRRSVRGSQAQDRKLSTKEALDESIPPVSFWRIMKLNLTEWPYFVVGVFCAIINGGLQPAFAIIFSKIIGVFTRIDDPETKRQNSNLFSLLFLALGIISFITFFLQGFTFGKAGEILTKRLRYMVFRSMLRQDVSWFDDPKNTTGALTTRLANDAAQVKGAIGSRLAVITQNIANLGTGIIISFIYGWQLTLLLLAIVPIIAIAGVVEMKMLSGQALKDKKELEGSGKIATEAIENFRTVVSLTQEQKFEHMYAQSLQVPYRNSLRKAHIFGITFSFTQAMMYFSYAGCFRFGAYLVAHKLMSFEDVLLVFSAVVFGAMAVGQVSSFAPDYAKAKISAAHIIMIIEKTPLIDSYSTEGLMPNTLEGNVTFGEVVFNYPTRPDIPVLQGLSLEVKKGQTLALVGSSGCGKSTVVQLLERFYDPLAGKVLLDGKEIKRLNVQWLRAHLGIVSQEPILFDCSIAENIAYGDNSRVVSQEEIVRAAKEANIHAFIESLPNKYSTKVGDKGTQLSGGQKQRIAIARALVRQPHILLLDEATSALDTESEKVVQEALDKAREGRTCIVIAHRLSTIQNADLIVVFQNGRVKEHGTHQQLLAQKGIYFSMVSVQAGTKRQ
Procedure for Vero cells: The antiviral effect of complexes against HSV-2 was screened using Vero cells (originally isolated from kidney epithelial cells) to host the growing viruses.
as §8, §9

With `Cc1ccc(C(C)C)cc1.[Cl][Ru]([Cl])[PH]12CN3CN(CN(C3)C1)C2` [RAPTA-C, [Ru(η^6-p-cymene) (PTA)Cl2], reference compound], the figures for the concentration for half-maximal inhibition (IC50) in series [1], in series [2] and in [3] were over 100 µM, over 100 µM and over 100000 nM, respectively. The “MIC E. faecalis” value in series [4] was over 100 µM. Besides, in series [5], the “MIC E. coli” value is over 100 µM. Moreover, in [6], the “MIC K. pneumoniae” value was over 100 µM. In [7], the “MIC S. aureus” value is over 100 µM.

For `Cc1ccc(C(C)C)cc1.[Cl-].[O-]c1c(I)cc(Cl)c2cccnc12.[Ru+2]` [complex 5], in series [1], it took 21 ± 2.4 µM to reach half-maximal inhibition (IC50) and the “S.I. MRC-5/Colo 205” value was 0.14. Also, in series [2], the half-maximal inhibitory concentration (IC50) amounted to 13.7 ± 0.85 µM and the “S.I. MRC-5/Colo 320” value is recorded as 0.21. This compound had an IC50 in series [3] of 2950 ± 710 nM. In series [8] (Colo 320, 2 μM), the “FAR fluorescence accumulation ratio” value worked out at 6.19, the “FAR quotient (FAR related to that of 20 μM verapamil)” value is 128.7%, the “FSC forward scatter count” value was 1917 and the “SSC side scatter count” value is recorded as 840. Besides, in series [8] (Colo 320, 20 μM), the “FAR fluorescence accumulation ratio” value came to 3.66, the “FAR quotient (FAR related to that of 20 μM verapamil)” value worked out at 76.0%, the “FSC forward scatter count” value is 1950 and the “SSC side scatter count” value was 877. Moreover, the “FL-1 mean fluorescence of the cells” value in series [8] (Colo 320, rhodamine 123, 2 μM) was 32.7. Moreover, the “FL-1 mean fluorescence of the cells” value in series [8] (Colo 320, rhodamine 123, 20 μM) is 19.3. The “FAR value” in series [8] (Colo 320, tested at 2 μM and 20 μM) is given as “above 2”. In addition, the “MIC E. faecalis” value in series [4] worked out at 12.5 µM. The “MIC E. coli” value in [5] was over 100 µM. Further, the “MIC K. pneumoniae” value in series [6] was over 100 µM. Further, the “MIC S. aureus” value in series [7] was found to be 25 µM. In [9], the “stability in PBS’ at pH 7.4, time-dependent UV-vis spectra” value is “No characteristic UV-vis spectral changes within 24 h”. Also, in the series on Vero cells, the “concentrations at which maximum cytotoxicity was observed, Vero” value lay within 12.5 to 100 µM and the “maximum non-toxic concentration, Vero” value is 6.25 µM. Moreover, in [10], the “maximum non-toxic concentration, HeLa 229” value is given as 25 µM.

Regarding `On1ccc2ccccc2c1=S` [HHiQT, 2-hydroxyisoquinoline-1(2H)-thione], the pKa in “physchem” worked out at 4.63 ± 0.08.

Regarding `N.N.[Cl][Pt][Cl]` [cisplatin, reference compound], in series [1], 29.8 ± 1.2 µM corresponded to half-maximal inhibition (IC50) and the “S.I. MRC-5/Colo 205” value amounted to 0.03. Moreover, in series [2], inhibition was half-maximal at 5.58 ± 0.7 µM (IC50) and the “S.I. MRC-5/Colo 320” value came to 0.16. This compound also came in with an IC50 in [3] of 880 ± 90 nM. In series [4], the “MIC E. faecalis” value is over 100 µM. Moreover, the “MIC E. coli” value in [5] is over 100 µM. The “MIC K. pneumoniae” value in series [6] is over 100 µM. Also, in [7], the “MIC S. aureus” value is over 100 µM.
